Structures can show the parent of a compound that is named as a salt.
Tests used:
[1] = test system: SHH acylation in HEK-293 SHH+ cells; assay: In-cell YnC15 tagging assay of SHH acylation; type: cell-based, human; settings: inhibitors 20 µM, YnC15, AzTB ligation; for inhibition of SHH acylation (YnC15 tagging) by in-gel fluorescence: IGF; for inhibition of SHH acylation assessed by increased molecular weight in anti-SHH blotting: α-SHH western blot
Protocol: In-Cell YnC15 Tagging Assay
HEK293a SHH+ cells (500,000 cells/well) were plated in a 6-well plate in DMEM/FBS (3 mL/well) and cultured for 24 h. Cells were treated with inhibitors in DMSO (20 µM), two RUSKI-201 (20 µM) blind-positive controls and two DMSO (7.5 µL) blind-negative controls.
After 1 h, YnC15 (3 µL, 20 mM in DMSO) was added and cells cultured for a further 6 h before washing with PBS. Cells were lysed in PBS with Triton X-100 (1%), SDS (0.1% (w/v)) and Complete EDTA-free protease inhibitor cocktail (Roche Diagnostics). Cells were removed from plates by scraping, and lysates centrifuged (13,000 g, 10 min, 4 °C). The protein concentration of the supernatant was estimated using the DC Protein Assay (Bio-Rad) and adjusted to 1 mg/mL with lysis buffer. AzTB (1 µL, 10 mM in DMSO), CuSO4 (2 µL, 50 mM in H2O), TCEP (2 µL, 50 mM in H2O) and TBTA (1 µL, 10 mM in DMSO) were combined, and this mixture (6 µL) added to the lysate (100 µL). Samples were shaken at RT for 1 h, then proteins precipitated by addition of methanol (200 µL), chloroform (50 µL) and water (100 µL) followed by centrifugation (13,000 g, 5 min, 4 °C). The upper aqueous layer was removed without disturbing the protein layer at the interphase, methanol (0.5 mL) was added, and the precipitated proteins isolated by centrifugation (13,000 g, 10 min, 4 °C). Protein pellets were […]
(§1) washed twice with methanol, briefly air-dried and re-dissolved in PBS containing SDS (0.2% (w/v)) and DTT (0.1 mM) using sonication to a final concentration of 1 mg/mL.
(§2) 10 µg of protein were separated on a 15% SDS-polyacrylamide gel. Fluorescence was recorded using a Typhoon imager (GE Healthcare; excitation laser: 532 nm, emission filter:
(§3) Proteins were transferred to a nitrocellulose membrane by wet transfer (100 V, 1 h), and membranes blocked with BSA (5% (w/v)) in TBS-T (50 mM TRIS, 150 mM NaCl, 0.1% Tween-20, pH 7.5) for 1 h at RT, followed by overnight incubation at 4°C with rabbit α-SHH (Santa Cruz Biotechnology; sc-9024; 1:200) in TBS-T with BSA (0.5% (w/v)) or mouse α-Tubulin (Santa Cruz Biotechnology; sc-8035; 1:200) in TBS-T with BSA (0.5% (w/v)). Membranes were washed with TBS-T (4 × 5 min) and incubated at RT for 1 h with HRP-conjugated Goat-α-mouse IgG (Advansta; 1:10,000) in TBS-T with BSA (0.5% (w/v)) or Goat-α-rabbit IgG (Advansta; 1:10,000) in TBS-T with BSA (0.5% (w/v)). Membranes were washed with TBS-T (4 × 5 min) and developed with Luminata Crescendo Western HRP substrate (Millipore) on a Fujifilm LAS-3000 imager. YnC15-labelled SHH band intensities were quantified using ImageJ 1.50i (National Institute of Health, USA).
HEK293a SHH+ cells (5,000 cells/well) were plated in a 96-well plate in DMEM/FBS […]
(50 µL/well) and cultured for 24 h. […]

HHAT = biological target: T1, HHAT (Homo sapiens, UniProt Q5VTY9); assay: Pilot HTS Acyl-cLIP screen of FDA-approved drugs, purified HHAT, stopped-assay conditions; type: biochemical; settings: compounds screened at 25 μM
T1 construct: FLAG (C); His (C); made in house; host or cells: HEK293a cells stably overexpressing HHAT-FLAG-His
T1 sequence (Q5VTY9 whole entry): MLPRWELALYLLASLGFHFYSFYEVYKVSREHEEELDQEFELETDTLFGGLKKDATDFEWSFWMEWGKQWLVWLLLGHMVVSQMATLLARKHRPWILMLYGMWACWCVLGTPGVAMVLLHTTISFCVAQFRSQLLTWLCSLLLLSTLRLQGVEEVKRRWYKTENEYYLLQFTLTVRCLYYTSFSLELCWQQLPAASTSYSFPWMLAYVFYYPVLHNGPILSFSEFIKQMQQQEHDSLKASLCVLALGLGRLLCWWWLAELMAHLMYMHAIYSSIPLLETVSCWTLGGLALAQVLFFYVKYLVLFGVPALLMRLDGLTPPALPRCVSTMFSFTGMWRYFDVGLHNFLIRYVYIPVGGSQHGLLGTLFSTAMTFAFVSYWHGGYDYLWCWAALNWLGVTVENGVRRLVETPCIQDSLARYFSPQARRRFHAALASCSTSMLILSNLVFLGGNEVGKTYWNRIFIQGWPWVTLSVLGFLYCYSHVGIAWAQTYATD

SHH-Light2 cells = assay: Constitutive Renilla luciferase control for cellular viability in SHH-Light2 assay; type: cell-based
Protocol: (§4) SHH-Light2 Signalling Assay
(§5) HEK293a SHH+ cells (120,000 cells/well) were plated in a 12-well cell culture treated plate (Nunc) in DMEM/FBS (1 mL/well) and cultured for 24 h. Cells were washed with PBS, followed by the addition of DMEM/FBS (1 mL) containing DMSO (0.2%) or varying inhibitor concentrations in DMSO (0.041-30 µM). SHH-Light2 cells (20,000 cells/well) were plated in a 96-well plate in DMEM/FCS (50 µL/well). After 24 h, conditioned medium (300 µL) was removed from each well of the HEK293a SHH+ cells, centrifuged (1,000 g, 10 min), and added to three wells of SHH-Light2 cells (100 µL/well, 150 µL final volume). SHH-Light2 cells were cultured for a further 48 h, and washed with PBS prior to analysis. Firefly and Renilla luciferase activity was recorded using the Dual-Luciferase reporter system (Promega Corporation, USA).
(§6) Passive lysis buffer (20 µL) was added to each well and cells incubated for 30 min at RT. The lysate (5 µL) was transferred to a white opaque 96-well plate (Corning, 3362). Luciferase Assay Reagent II (20 µL/well) was added and the luminescence immediately recorded using a SpectraMax i3x spectrophotometer (Molecular Devices LLC). Stop&Glo (1x) substrate in Stop&Glo buffer (20 µL/well) was added and the luminescence immediately recorded. […]

[2] = test system: HH signalling in SHH-Light2 cells; assay: SHH-Light2 signalling assay (Firefly luciferase); type: cell-based; settings: inhibitors 0.041-30 µM
Protocol: as §4, §5, §6

HEK-293 SHH+ cells = assay: MTS viability assay; type: cell-based, human; settings: 72 h, inhibitors 0.14-100 µM
Protocol: as §1, §2
as §3, with “Membranes were washed with TBS-T (4 × 5 min) and developed with Luminata Crescendo Western HRP substrate (Millipore) on a Fujifilm LAS-3000 imager.” left out
HEK293a SHH+ cells (5,000 cells/well) were plated in a 96-well plate in DMEM/FBS (50 µL/well) and cultured for 24 h. […] The absorption at 490 nm was recorded using an EnVision Xcite 2104 and responses normalised to vehicle control and background corrected to Puromycin-treated samples.

[3] = cited from earlier work
[4] = Detergent/BSA titration for polarised emission of Pal-SHH-FAM (fluorescence anisotropy); settings: titration with Pal-SHH-FAM; read-out: detergent concentration required for half-maximal polarised signal (EC50)
Protocol: Fluorescence measurements were recorded on an EnVision Xcite 2104 (PerkinElmer).
FAM-labelled peptides were measured using a FITC FP D505fp mirror module, FITC FP 480 nm excitation filter (30 nm bandwidth), FITC FP P-pol 535 nm first emission filter (40 nm bandwidth), and FITC FP S-pol 535 nm second emission filter (40 nm bandwidth). Continuous reaction monitoring was conducted using measurement height = 9.52 mm, 8 flashes/well, PMT gain = 319, and G-factor = 1.09.
TAMRA-labelled peptides were measured using a BODIPY TMR FP D555fp mirror module, BODIPY TMR FP 531 nm excitation filter (25 nm bandwidth), BODIPY TMR FP P-pol 579 nm first emission filter (25 nm bandwidth), and BODIPY TMR FP S-pol 579 nm second emission filter (25 nm bandwidth). Continuous reaction monitoring was conducted using measurement height = 6.5 mm, 200 flashes/well, PMT gain = 255, and G-factor = 1.6.
Detergents (2 mM) or BSA (0.15 mM) were tested for generation of polarised fluorescence from Pal-SHH-FAM or SHH-FAM (0.1 µM) in 100 mM MES, 20 mM NaCl. Detergent and BSA titrations were performed using 2-fold serial dilutions.

BSA = biological target: BSA; design: method as in PMID 11964183; settings: read-out: Kd of BSA for palmitic acid; cited from earlier work

## CC(C)C[C@H]1C(=O)N2CCC[C@H]2[C@]2(O)O[C@](NC(=O)[C@@H]3C=C4c5cccc6[nH]c(Br)c(c56)C[C@H]4N(C)C3)(C(C)C)C(=O)N12 [Bromocriptine Mesylate]
[1]; listed as Bromocriptine
  inhibition of SHH acylation (YnC15 tagging) by in-gel fluorescence: inhibition
[1]; listed as bromocriptine
  inhibition of SHH acylation (YnC15 tagging) by in-gel fluorescence: showed inhibition of SHH acylation
[1]
  inhibition of SHH acylation assessed by increased molecular weight in anti-SHH blotting: did not show inhibition of SHH acylation
HHAT
  inhibition at 25 µM: > 80%
SHH-Light2 cells
  cytotoxicity in SHH-Light2 signalling assay: general cytotoxicity

## CN(C)CCCN1c2ccccc2CCc2ccc(Cl)cc21 [Clomipramine·HCl]
[2]; listed as Clomipramine
  concentration at which HH signalling is inhibited: 30 µM
[2]; listed as clomipramine
  concentration at which HH signalling is inhibited: > 30 µM
[1]; listed as Clomipramine
  inhibition of SHH acylation (YnC15 tagging) by in-gel fluorescence: inhibition
[1]; listed as clomipramine
  inhibition of SHH acylation (YnC15 tagging) by in-gel fluorescence: showed inhibition of SHH acylation
[1]
  inhibition of SHH acylation assessed by increased molecular weight in anti-SHH blotting: did not show inhibition of SHH acylation
HEK-293 SHH+ cells; listed as Clomipramine
  viability in MTS assay: cytotoxicity
HEK-293 SHH+ cells; listed as clomipramine
  viability in MTS assay: decreased viability at high concentrations

## CCCCCCCCCCCCO[C@@H]1O[C@H](CO)[C@@H](O[C@H]2O[C@H](CO)[C@@H](O)[C@H](O)[C@H]2O)[C@H](O)[C@H]1O [DDM, n-dodecyl β-D-maltoside]
[3]
  critical micelle concentration (CMC): 170 µM
[4]
  EC50: 150 µM

## CCCCCCCCCCCCCCCC(=O)O [palmitic acid]
BSA
  Kd: 104 nM

## Triton™ X-100 [TX-100]
[3]
  critical micelle concentration (CMC): 200 µM
[4]
  EC50: 180 µM

Source: paper PMC6855259, “Acylation-coupled lipophilic induction of polarisation (Acyl-cLIP): a universal assay for lipid transferase and hydrolase enzymes” (Chemical Science, 2019)
